Data published in patent EP3075378A1, “ANTI-INFLAMMATORY AGENT AND MELANIN PRODUCTION SUPPRESSANT” (Kao Corporation, priority 2013, dated 2015).

Legend:
[1] = test system: Normal human epidermal cells; experiment: Test-1 of PGE2 production suppression (arachidonic acid added); format: cell-based; details: culture supernatant after one day, control 1711.7 ± 25.91
Protocol: Normal human epidermal cells were seeded on a 24 well plate by 2 × 10^5 each, and cultured for 2 days on a MCDB153 medium. The medium was exchanged with a MCDB153 medium containing arachidonic acid (manufactured by Wako Pure Chemical Industries, Ltd.), which is a substrate of PGE2, and pentaerythritol (manufactured by JUNSEI CHEMICAL CO., LTD.) or the two acetal derivatives of pentaerythritol (the compounds of Examples 1 and 2), and the cells were further cultured for one day. As a control, purified water was added instead of pentaerythritol or the acetal derivative of pentaerythritol. After completion of the culture, the amount of PGE2 released in the cultured supernatant was quantified using a PGE2 measurement kit (manufactured by Cayman Chemical Company). In addition, in the same manner as the control, a control group to which purified water was added, but arachidonic acid was not added, was provided.

[2] = test system: Normal human epidermal cells; experiment: Test-2 of PGE2 production suppression (UVB irradiation); format: cell-based; details: after 30 mJ/cm^2 UVB, culture supernatant after one day, control 670.1 ± 23.97
Protocol: Normal human epidermal cells were seeded on a 24 well plate by 2 × 10^5 each, and cultured for two days on a MCDB153 medium. The medium was replaced with HEPES Buffer, and was irradiated with 30 mJ/cm^2 UVB using a UVB lamp (TOREX FL20S and E-30/DMR 20W manufactured by TOSHIBA MEDICAL SUPPLY CO., LTD.). The intensity of ultraviolet rays was measured with a digital type ultraviolet intensity meter (manufactured by Ultraviolet). After the UVB irradiation, the medium was exchanged with a MCDB153 medium containing pentaerythritol (manufactured by JUNSEI CHEMICAL CO., LTD.), and further cultured for one day. As a control, purified water was added instead of pentaerythritol. After completion of the culture, the amount of PGE2 released in the culture supernatant was quantified using a PGE2 measurement kit (manufactured by Cayman Chemical Company). In addition, in the same manner as the control, a control group containing purified water and not irradiated with UVB was provided.

[3] = test system: three-dimensional cultured skin model (MEL-300-A) composed of normal human epidermal melanocytes and epidermal keratinocytes; experiment: Test of melanin production suppression, using three-dimensional cultured skin model; format: cell-based; details: 25 µL on keratinous layer, 11 days culture, relative to 100 (%) of control (H2O)
Protocol: (§1) A three-dimensional cultured skin model (MEL-300-A, manufactured by MatTek Corporation) composed of normal human epidermal melanocytes and epidermal keratinocytes was cultured, using the attached medium to which factors inducing melanin production were added. 25 µL of a pentaerythritol solution (1 or 5 mmol/L) was added onto the keratinous layer of the skin model. The skin model was cultured for 11 days exchanging the medium and the test substance solution every 2 to 3 days, and then the skin model was washed, and the cell survival rate was measured using Alamar Blue (manufactured by Invitrogen). In addition, the skin model was dissolved under heating in SOLVABLE (manufactured by Perkin Elmar), and the absorbance (405 nm) was measured and the amount of melanin was calculated relative to a standard determined by similarly dissolving melanin (manufactured by SIGMA) in SOLVABLE. The amount of melanin was determined relative to 100 (%) of the control (H2O addition).
(§2) The test method is similar to that of Example 6.

[4] = test system: three-dimensional cultured skin model (MEL-300-A) composed of normal human epidermal melanocytes and epidermal keratinocytes; experiment: Cell survival rate (Alamar Blue) in three-dimensional cultured skin model; format: cell-based
Protocol: as §1, §2

[5] = Test of melanin production suppression, using three-dimensional cultured skin model; format: cell-based, human; details: Homo sapiens, 264 h; Addition concentration 5 mmol/L; method as Example 6; relative to control (H2O) 100; read-out: Melanin amount (%)
Protocol: as §1, §2

SMILES | PGE2 amount (pg/mL) ± SD ([1]; sample concentration 0.5 µM) | PGE2 amount (pg/mL) ± SD ([1]; sample concentration 5.0 µM) | activity at 5000 µM [5] | further results
CC1(C)OCC2(CO1)COC(C)(C)OC2 [diisopropylidene pentaerythritol] | 746.0 ± 28.70 pg/mL | 1142.0 ± 19.94 pg/mL |  | 
CC1(C)OCC(CO)(CO)CO1 [monoisopropylidene pentaerythritol] | 824.7 ± 28.78 pg/mL | 790.5 ± 11.64 pg/mL |  | 
OCC(CO)(CO)CO [Pentaerythritol] | 789.2 ± 168.61 pg/mL | 1151.3 ± 6.73 pg/mL |  | PGE2 amount (pg/mL) ± SD ([2]; sample concentration 0.05 µM): 565.5 ± 28.10 pg/mL; PGE2 amount (pg/mL) ± SD ([2]; sample concentration 0.5 µM): 522.8 ± 50.40 pg/mL; PGE2 amount (pg/mL) ± SD ([2]; sample concentration 5.0 µM): 512.3 ± 65.31 pg/mL; amount of melanin (%) ([3]; 1 mmol/L): 83.8%; amount of melanin (%) ([3]; 5 mmol/L): 76.7%; cell toxicity ([4]; 1 or 5 mmol/L, any test addition concentration, 11 days culture): not detected
OC[C@@H](O)[C@@H](O)CO [Erythritol, reference compound] |  |  | 97% | 
OC[C@@H](O)[C@@H](O)[C@H](O)[C@H](O)CO [Mannitol, reference compound] |  |  | 96.3% | cell toxicity ([4]; 5 mmol/L, Example 7, method as Example 6): not detected
